From patent US4740504A, “Antihyperlipidemic amine boranes” (United States Borax & Chemical Corp., priority 1987, dated 1988)
Read-outs that look alike come from different tables or passages of the source.

Experiments:
[1] = molecular target: T1, ATP dependent citrate lyase (Mus musculus, UniProt Q91V92); test: Enzymatic studies in vitro: ATP dependent citrate lyase; type: biochemical; conditions: at all concentrations tested
T1 construct: from tissue
T1 sequence (Q91V92 1-1091): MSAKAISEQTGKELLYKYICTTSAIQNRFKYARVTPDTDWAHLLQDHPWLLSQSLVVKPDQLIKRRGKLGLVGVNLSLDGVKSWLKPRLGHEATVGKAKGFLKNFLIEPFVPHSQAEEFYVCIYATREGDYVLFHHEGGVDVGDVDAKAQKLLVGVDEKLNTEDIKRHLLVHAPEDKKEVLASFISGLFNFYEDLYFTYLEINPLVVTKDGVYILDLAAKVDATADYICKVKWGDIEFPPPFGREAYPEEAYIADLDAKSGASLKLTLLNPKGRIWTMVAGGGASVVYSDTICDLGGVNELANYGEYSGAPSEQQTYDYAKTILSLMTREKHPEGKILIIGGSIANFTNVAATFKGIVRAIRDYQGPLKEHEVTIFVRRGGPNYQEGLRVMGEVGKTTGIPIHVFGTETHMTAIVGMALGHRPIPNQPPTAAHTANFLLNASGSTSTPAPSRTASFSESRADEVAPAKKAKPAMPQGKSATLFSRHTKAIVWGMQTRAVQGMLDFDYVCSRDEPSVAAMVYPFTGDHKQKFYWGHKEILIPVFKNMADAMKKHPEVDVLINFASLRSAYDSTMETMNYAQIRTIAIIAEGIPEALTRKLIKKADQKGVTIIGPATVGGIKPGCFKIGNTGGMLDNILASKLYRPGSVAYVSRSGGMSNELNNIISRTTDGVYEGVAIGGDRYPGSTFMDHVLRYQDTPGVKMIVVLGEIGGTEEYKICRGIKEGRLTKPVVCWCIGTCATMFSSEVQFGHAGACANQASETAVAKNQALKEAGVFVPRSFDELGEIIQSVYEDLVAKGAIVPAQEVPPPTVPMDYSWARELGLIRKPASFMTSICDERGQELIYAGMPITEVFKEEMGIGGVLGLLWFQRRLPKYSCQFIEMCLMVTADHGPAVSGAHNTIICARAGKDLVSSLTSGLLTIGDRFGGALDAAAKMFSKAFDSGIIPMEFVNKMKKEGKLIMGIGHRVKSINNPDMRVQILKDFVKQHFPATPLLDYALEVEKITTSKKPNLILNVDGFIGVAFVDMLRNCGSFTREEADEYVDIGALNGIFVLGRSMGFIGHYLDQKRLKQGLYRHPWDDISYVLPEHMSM

[2] = Toxicity (LD50); conditions: in vivo
[3] = system: sn-Glycerol-3-phosphate acyl transferase; test: Enzyme activity after in vivo dosing: sn-glycerol-3-phosphate acyl transferase; conditions: 16 mg/kg/day
[4] = system: male CF1 mice; test: Hypolipidemic activity in CF1 mice, intraperitoneal dosing (serum cholesterol and triglyceride); type: in vivo; conditions: Table III, 4 mg/kg/day i.p., N = 6
[5] = system: Hepatic lipoprotein lipase; test: Enzymatic studies in vitro: hepatic lipoprotein lipase induced by heparin; type: biochemical
[6] = molecular target: T2, acetyl CoA synthetase (Mus musculus, UniProt Q9QXG4); test: Enzymatic studies in vitro: acetyl CoA synthetase; type: biochemical; conditions: at all concentrations tested
T2 construct: from tissue

[7] = system: hyperlipidemic induced mice; test: Hypolipidemic activity in diet-induced hyperlipidemic mice; type: in vivo; conditions: 8 mg./kg./day i.p., 12 days
Protocol: The same compound was tested in mice that had been placed on a commercial diet to produce a "hyperlipidemic" state. […] Serum cholesterol and triglyceride levels were measured at that time. A similar lowering of cholesterol and triglyceride levels in the hyperlipidemic-induced mice was observed.

[8] = system: sn-glycerol-3 phosphate acyl transferase; test: Enzymatic studies in vitro: sn-glycerol-3 phosphate acyl transferase; type: biochemical
[9] = molecular target: T3, fatty acid synthetase (Mus musculus, UniProt P19096); test: Enzymatic studies in vitro: fatty acid synthetase; type: biochemical
T3 construct: from tissue

[10] = molecular target: T4, Cholesterol 7α hydrolase (Mus musculus, UniProt Q64505); test: Enzymatic studies in vitro: cholesterol 7α hydrolase; type: biochemical
T4 construct: from tissue; host or cells: liver (inferred; the enzyme is liver-specific)

[11] = system: male CF1 mice; test: Hypolipidemic activity in CF1 mice, intraperitoneal dosing (serum cholesterol and triglyceride); type: in vivo; conditions: for response vs control in vivo at 20 mg/kg: Mus musculus, ip, Table I, 20 mg./kg./day i.p., male CF1 mice; for Serum Cholesterol Day 9 (X ± SD) / Serum Cholesterol Day 16 (X ± SD) / Serum Triglyceride Day 16 (X ± SD) / Serum Triglyceride Day 9 (X ± SD): Table III, CF1 mice, N = 6
Protocol: For determining hypolipidemic activity, the compounds were suspended in an aqueous 1% carboxymethylcellulose solution and tested at 5 or 20 mg./kg./day administered intraperitoneally to male CF1 mice (~25 g.). On days 9 and 16 blood was collected by tail vein bleeding and the serum separated by centrifugation for three minutes. Serum cholesterol levels were determined by a modified Liebermann-Burchard reaction. Serum triglyceride levels were also determined at 16 days using a Fisher-Hycel Triglyceride Test Kit.
The test was repeated at a dosage of 8 mg./kg./day.
N-n-Octadecyl-N,N-dimethylamine borane was suspended in an aqueous 1% carboxymethylcellulose solution, homogenized, and administered to CF1 male mice (~25 g.) intraperitoneally for 16 days or Sprague Dawley male rats (~350 g.) orally by an intubation needle for 14 days. On days 9 and 14 or 16, blood was obtained by tail vein bleeding and the serum separated by centrifugation for 3 minutes. The serum cholesterol levels were determined by a modification of the Liebermann-Burchard reaction. Serum was also collected on day 14 or 16 and the triglyceride content was determined by a Fisher-Hycel Triglyceride Test Kit.

[12] = system: HMG CoA reductase; test: Enzymatic studies in vitro: cholesterol synthesis (HMG CoA reductase); type: biochemical; conditions: 200 μM
[13] = system: phosphatidate phosphohydrolase; test: Enzyme activity after in vivo dosing: phosphatidate phosphohydrolase; conditions: 16 mg/kg/day
[14] = system: Actyl CoA carboxylase; test: Enzymatic studies in vitro: acetyl CoA carboxylase; type: biochemical
[15] = CF1 male mice, 8 mg/kg/day I.P.

T3 sequence (P19096 whole entry): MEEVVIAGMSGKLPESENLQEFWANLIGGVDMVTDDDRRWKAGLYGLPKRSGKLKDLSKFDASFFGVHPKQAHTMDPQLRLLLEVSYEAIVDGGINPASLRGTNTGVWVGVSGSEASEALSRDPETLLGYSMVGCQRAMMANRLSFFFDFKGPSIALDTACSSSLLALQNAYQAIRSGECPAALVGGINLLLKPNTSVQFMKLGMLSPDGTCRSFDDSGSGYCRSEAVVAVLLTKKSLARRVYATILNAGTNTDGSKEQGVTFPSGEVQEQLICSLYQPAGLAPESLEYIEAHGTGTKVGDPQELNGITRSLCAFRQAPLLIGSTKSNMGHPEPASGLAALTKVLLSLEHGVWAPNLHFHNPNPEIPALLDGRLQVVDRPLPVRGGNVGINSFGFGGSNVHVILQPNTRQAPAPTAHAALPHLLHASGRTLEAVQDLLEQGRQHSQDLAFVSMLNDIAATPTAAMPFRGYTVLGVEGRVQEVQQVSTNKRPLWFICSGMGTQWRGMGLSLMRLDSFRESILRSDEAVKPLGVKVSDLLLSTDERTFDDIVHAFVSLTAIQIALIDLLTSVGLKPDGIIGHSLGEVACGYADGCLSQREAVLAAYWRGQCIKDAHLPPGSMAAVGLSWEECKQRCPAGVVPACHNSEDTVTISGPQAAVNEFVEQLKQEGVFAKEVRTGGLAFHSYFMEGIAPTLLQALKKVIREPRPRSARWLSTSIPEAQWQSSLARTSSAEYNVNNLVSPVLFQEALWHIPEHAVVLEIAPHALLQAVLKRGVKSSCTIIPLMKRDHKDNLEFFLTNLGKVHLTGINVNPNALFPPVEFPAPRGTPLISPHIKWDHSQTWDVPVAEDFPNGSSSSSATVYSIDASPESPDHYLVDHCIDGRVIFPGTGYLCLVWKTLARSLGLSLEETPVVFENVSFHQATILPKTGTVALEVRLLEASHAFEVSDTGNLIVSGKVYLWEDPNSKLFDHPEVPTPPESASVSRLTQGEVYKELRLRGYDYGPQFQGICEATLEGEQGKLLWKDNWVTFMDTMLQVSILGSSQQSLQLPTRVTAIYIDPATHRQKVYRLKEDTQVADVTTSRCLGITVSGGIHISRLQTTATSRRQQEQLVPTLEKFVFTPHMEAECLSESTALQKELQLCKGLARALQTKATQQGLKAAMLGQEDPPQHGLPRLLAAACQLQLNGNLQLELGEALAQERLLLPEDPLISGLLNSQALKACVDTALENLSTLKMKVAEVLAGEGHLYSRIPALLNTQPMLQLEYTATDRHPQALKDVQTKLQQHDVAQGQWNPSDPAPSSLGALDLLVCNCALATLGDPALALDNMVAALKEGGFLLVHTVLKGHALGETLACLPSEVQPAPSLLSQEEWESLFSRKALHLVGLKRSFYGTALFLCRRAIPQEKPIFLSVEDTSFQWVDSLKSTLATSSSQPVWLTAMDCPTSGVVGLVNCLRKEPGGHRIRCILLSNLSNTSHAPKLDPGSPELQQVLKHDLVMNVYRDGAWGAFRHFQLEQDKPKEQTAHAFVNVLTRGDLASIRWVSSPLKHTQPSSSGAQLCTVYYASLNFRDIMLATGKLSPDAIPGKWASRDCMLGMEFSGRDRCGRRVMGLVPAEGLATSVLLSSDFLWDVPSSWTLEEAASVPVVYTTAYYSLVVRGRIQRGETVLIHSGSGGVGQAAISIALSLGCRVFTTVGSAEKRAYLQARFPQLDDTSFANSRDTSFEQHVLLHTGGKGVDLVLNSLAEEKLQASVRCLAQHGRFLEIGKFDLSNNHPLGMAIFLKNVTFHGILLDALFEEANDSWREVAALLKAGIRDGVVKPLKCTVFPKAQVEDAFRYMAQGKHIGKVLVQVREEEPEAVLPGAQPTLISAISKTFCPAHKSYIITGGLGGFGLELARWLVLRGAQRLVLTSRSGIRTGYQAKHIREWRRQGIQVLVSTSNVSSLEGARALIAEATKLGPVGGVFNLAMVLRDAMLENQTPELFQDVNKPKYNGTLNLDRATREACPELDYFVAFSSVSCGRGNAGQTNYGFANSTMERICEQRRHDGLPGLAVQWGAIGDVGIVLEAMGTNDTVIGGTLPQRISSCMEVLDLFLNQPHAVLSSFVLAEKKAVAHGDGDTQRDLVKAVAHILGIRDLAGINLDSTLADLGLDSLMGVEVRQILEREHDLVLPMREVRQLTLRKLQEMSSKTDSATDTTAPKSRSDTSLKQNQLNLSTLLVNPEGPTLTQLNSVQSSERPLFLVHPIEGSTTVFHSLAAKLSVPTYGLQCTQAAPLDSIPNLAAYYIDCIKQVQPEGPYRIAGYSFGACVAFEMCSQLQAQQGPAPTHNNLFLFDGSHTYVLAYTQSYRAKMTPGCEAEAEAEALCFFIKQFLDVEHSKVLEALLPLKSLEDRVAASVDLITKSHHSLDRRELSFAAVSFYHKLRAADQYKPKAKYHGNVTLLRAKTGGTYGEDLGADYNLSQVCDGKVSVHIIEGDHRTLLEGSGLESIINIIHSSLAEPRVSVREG
T4 sequence (Q64505 whole entry): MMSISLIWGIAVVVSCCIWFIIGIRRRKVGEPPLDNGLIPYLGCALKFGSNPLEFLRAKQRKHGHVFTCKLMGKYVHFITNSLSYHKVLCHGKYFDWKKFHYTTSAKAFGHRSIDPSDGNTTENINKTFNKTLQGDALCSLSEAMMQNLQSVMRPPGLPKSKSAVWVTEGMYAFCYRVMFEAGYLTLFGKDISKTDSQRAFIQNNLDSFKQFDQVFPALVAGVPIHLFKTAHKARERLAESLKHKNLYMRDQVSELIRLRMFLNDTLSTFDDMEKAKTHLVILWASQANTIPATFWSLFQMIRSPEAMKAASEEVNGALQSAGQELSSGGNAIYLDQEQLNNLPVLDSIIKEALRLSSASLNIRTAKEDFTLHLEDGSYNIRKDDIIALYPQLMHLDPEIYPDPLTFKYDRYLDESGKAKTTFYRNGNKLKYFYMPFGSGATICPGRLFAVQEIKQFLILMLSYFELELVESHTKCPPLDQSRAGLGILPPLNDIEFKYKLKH
T2 sequence (Q9QXG4 whole entry): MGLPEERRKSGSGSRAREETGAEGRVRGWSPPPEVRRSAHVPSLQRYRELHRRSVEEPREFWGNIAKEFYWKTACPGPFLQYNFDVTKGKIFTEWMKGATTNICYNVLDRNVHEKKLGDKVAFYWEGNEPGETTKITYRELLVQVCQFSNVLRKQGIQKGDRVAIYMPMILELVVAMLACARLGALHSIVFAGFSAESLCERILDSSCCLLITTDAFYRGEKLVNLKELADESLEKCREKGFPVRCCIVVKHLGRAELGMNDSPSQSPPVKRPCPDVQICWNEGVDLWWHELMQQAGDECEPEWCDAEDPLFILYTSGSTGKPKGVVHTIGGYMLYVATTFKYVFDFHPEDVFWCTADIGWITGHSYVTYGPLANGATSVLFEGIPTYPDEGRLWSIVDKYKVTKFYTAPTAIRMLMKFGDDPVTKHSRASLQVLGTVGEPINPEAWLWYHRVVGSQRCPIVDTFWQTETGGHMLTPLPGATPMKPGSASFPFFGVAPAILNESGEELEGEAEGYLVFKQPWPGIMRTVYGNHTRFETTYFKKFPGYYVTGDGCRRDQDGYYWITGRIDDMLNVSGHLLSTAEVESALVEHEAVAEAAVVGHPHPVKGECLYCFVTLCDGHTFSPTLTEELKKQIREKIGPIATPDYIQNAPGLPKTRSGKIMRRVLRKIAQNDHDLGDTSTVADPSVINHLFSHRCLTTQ

[BH3-][N+](C)(C)CCCCCCCCCCCCCCCCCC [I, N-n-Octadecyl-N,N-Dimethylamine Borane]
reduction of ATP dependent citrate lyase activity [1]: more than 50%
LD50 [2]: > 500 mg/kg
reduction of sn-glycerol-3-phosphate acyl transferase activity [3]: 33%
Serum Triglyceride Day 9 (X ± SD) [4]: 80 ± 9% of Control
reduction of hepatic lipoprotein lipase activity ([5]; 100 μM): 23%
reduction of hepatic lipoprotein lipase activity ([5]; 200 μM): 23%
reduction of acetyl CoA synthetase activity [6]: more than 50%
serum cholesterol level after treatment ([7]; hyperlipidemic induced mice (elevated to 375 mg %, control 128 mg %)): 180 mg %
reduction of serum cholesterol level ([7]; hyperlipidemic induced mice): 52%
serum triglyceride level after treatment ([7]; hyperlipidemic mice (elevated to 367 mg/dl, normal 137 mg/dl)): 187 mg %
reduction of serum triglyceride level ([7]; hyperlipidemic mice): 49%
effect on sn-glycerol-3 phosphate acyl transferase activity [8]: unaffected
effect on fatty acid synthetase activity [9]: unaffected
effect on cholesterol 7α hydrolase activity [10]: unaffected
reduction of serum cholesterol levels [11, 15]: 41%
reduction of serum triglyceride levels [11, 15]: 59%
response vs control in vivo at 20 mg/kg ([11]; 216 h, day 9, read-out: Serum Cholesterol Day 9): 82%
response vs control in vivo at 20 mg/kg ([11]; 384 h, day 16, read-out: Serum Cholesterol Day 16): 79%
response vs control in vivo at 20 mg/kg ([11]; 384 h, day 16, read-out: Serum Triglyceride Day 16): 77%
Serum Cholesterol Day 9 (X ± SD) ([11]; 2 mg/kg/day i.p.): 71 ± 6% of Control
Serum Cholesterol Day 16 (X ± SD) ([11]; 2 mg/kg/day i.p.): 61 ± 7% of Control
Serum Triglyceride Day 16 (X ± SD) ([11]; 2 mg/kg/day i.p.): 45 ± 4% of Control
Serum Cholesterol Day 9 (X ± SD) ([11]; 4 mg/kg/day i.p.): 69 ± 5% of Control
Serum Cholesterol Day 16 (X ± SD) ([11]; 4 mg/kg/day i.p.): 59 ± 5% of Control
Serum Triglyceride Day 16 (X ± SD) ([11]; 4 mg/kg/day i.p.): 49 ± 5% of Control
Serum Cholesterol Day 9 (X ± SD) ([11]; 8 mg/kg/day i.p.): 79 ± 7% of Control
Serum Cholesterol Day 16 (X ± SD) ([11]; 8 mg/kg/day i.p.): 59 ± 4% of Control
Serum Triglyceride Day 9 (X ± SD) ([11]; 8 mg/kg/day i.p.): 87 ± 7% of Control
Serum Triglyceride Day 16 (X ± SD) ([11]; 8 mg/kg/day i.p.): 41 ± 3% of Control
Serum Cholesterol Day 9 (X ± SD) ([11]; 12 mg/kg/day i.p.): 62 ± 6% of Control
Serum Cholesterol Day 16 (X ± SD) ([11]; 12 mg/kg/day i.p.): 61 ± 5% of Control
Serum Triglyceride Day 9 (X ± SD) ([11]; 12 mg/kg/day i.p.): 58 ± 6% of Control
Serum Triglyceride Day 16 (X ± SD) ([11]; 12 mg/kg/day i.p.): 56 ± 7% of Control
Serum Cholesterol Day 9 (X ± SD) ([11]; 16 mg/kg/day i.p.): 60 ± 5% of Control
Serum Cholesterol Day 16 (X ± SD) ([11]; 16 mg/kg/day i.p.): 61 ± 6% of Control
Serum Triglyceride Day 9 (X ± SD) ([11]; 16 mg/kg/day i.p.): 73 ± 8% of Control
Serum Triglyceride Day 16 (X ± SD) ([11]; 16 mg/kg/day i.p.): 63 ± 8% of Control
Serum Cholesterol Day 9 (X ± SD) ([11]; 20 mg/kg/day i.p.): 82 ± 7% of Control
Serum Cholesterol Day 16 (X ± SD) ([11]; 20 mg/kg/day i.p.): 79 ± 7% of Control
Serum Triglyceride Day 16 (X ± SD) ([11]; 20 mg/kg/day i.p.): 77 ± 7% of Control
Serum Cholesterol Day 9 (X ± SD) ([11]; 40 mg/kg/day i.p.): 83 ± 6% of Control
Serum Cholesterol Day 16 (X ± SD) ([11]; 40 mg/kg/day i.p.): 79 ± 8% of Control
Serum Triglyceride Day 16 (X ± SD) ([11]; 40 mg/kg/day i.p.): 93 ± 6% of Control
Serum Cholesterol Day 9 (X ± SD) ([11]; 60 mg/kg/day i.p.): 81 ± 6% of Control
Serum Cholesterol Day 16 (X ± SD) ([11]; 60 mg/kg/day i.p.): 82 ± 6% of Control
Serum Triglyceride Day 16 (X ± SD) ([11]; 60 mg/kg/day i.p.): 113 ± 4% of Control
optimum dosage ([11]; in mice): about 8 mg./kg./day
reduction of cholesterol synthesis (HMG CoA reductase) [12]: 38%
reduction of phosphatidate phosphohydrolase activity [13]: 40%
effect on Actyl CoA carboxylase activity [14]: unaffected
